Results published in patent US20200222474A1, “COMPOSITIONS AND METHODS FOR INCREASING PHYTOCHEMICAL BIOAVAILABLITY AND BIOACTIVITY” (North Carolina State University, priority 2017, published 2020).

Tested on: L. acidophilus NCFM
Assay: RNA-seq transcriptional analysis of L. acidophilus NCFM growing on plant glycosides
Assay type: cell-based, Lactobacillus acidophilus
[1] = LBA1955 Transcription regulator family protein, COG K
[2] = gene LBA0046 (Hypothetical protein)
[3] = gene LBA0149 (Putative nucleotide-binding protein)
[4] = gene LBA0263 (Hypothetical protein)
[5] = gene LBA0282 (Hypothetical protein)
[6] = gene LBA0327 (Replication protein)
[7] = gene LBA0328 (Hypothetical protein)
[8] = gene LBA0330 (Hypothetical protein)
[9] = gene LBA0457 (Hypothetical protein)
[10] = gene LBA0485 (Hypothetical protein)
[11] = gene LBA0486 (Hypothetical protein)
[12] = gene LBA0487 (Hypothetical protein.)
[13] = gene LBA0492 (Hypothetical protein)
[14] = gene LBA0541 (Cadmium-transporting ATPase)
[15] = gene LBA0542 (Putative heavy-metal-transporting alpase)
[16] = gene LBA0543 (Hypothetical protein)
[17] = gene LBA0544 (Transcriptional regulator)
[18] = gene LBA0555 (Myosin-crossreactive antigen)
[19] = gene LBA0564 (HAD family hydrolase)
[20] = gene LBA0574 (ABC multi drug exporter)
[21] = gene LBA0575 (ABC multi drug exporter)
[22] = gene LBA0604 (Immunity protein)
[23] = gene LBA0605 (Putative hydrolase)
[24] = gene LBA0608 (Hypothetical protein)
[25] = gene LBA0631 (Hypothetical protein)
[26] = gene LBA0649 (Myosin-crossreactive antigen)
[27] = gene LBA0728 (Hypothetical protein LBA0728)
[28] = gene LBA1025 (Aldo/keto reductase family oxidoreductase)
[29] = gene LBA1026 (Aldo/keto reduetase family oxidoreductase)
[30] = gene LBA1206 (Hypothetical protein)
[31] = gene LBA1401 (Peroxidase (Npx))
[32] = gene LBA1435 (Hypothetical protein)
[33] = gene LBA1455 (Putative surface layer protein)
[34] = gene LBA1656 (Hypothetical protein)
[35] = gene LBA1675 (Hypothetical protein)
[36] = gene LBA1676 (ATP-dependent helicase)
[37] = gene LBA1683 (Putative magnesium-transporting atpase)
[38] = gene LBA1704 (N-Acetylmuramic acid-6-phosphate etherase)
[39] = gene LBA1740 (Hypothetical protein)
[40] = gene LBA1752 (Hypothetical protein)
[41] = gene LBA1769 (Hypothetical protein)
[42] = gene LBA1793 (Hypothetical protein)
[43] = gene LBA1869 (Beta-phosphoglueomutase)
[44] = gene LBA1895 (Hypothetical protein)

SMILES: OC[C@H]1O[C@@H](O[C@H]2[C@H](O)[C@@H](O)[C@@H](O)O[C@@H]2CO)[C@H](O)[C@@H](O)[C@H]1O [Lac]
- Log2 differential normalized TPM ratio compared to glucose (LBA1878 Glycerol kinase, COG C): 0
- Transcripts per million (rpm) (LBA1878 Glycerol kinase, COG C): 8.9 rpm
- Log2 differential normalized TPM ratio compared to glucose [1]: −0.4
- Transcripts per million (rpm) [1]: 403.9 rpm
- Log2 differential normalized TPM ratio compared to glucose [2]: 0.7
- Transcripts per million (rpm) [2]: 506.3 rpm
- Log2 differential normalized TPM ratio compared to glucose [3]: 0.8
- Transcripts per million (rpm) [3]: 850.2 rpm
- Log2 differential normalized TPM ratio compared to glucose [4]: 0.7
- Transcripts per million (rpm) [4]: 27 rpm
- Log2 differential normalized TPM ratio compared to glucose [5]: 0.6
- Transcripts per million (rpm) [5]: 32.7 rpm
- Log2 differential normalized TPM ratio compared to glucose [6]: 0.2
- Transcripts per million (rpm) [6]: 9.5 rpm
- Log2 differential normalized TPM ratio compared to glucose [7]: −0.1
- Transcripts per million (rpm) [7]: 13.2 rpm
- Log2 differential normalized TPM ratio compared to glucose [8]: 0.3
- Transcripts per million (rpm) [8]: 26.6 rpm
- Log2 differential normalized TPM ratio compared to glucose [9]: 1
- Transcripts per million (rpm) [9]: 977.4 rpm
- Log2 differential normalized TPM ratio compared to glucose [10]: 2.4
- Transcripts per million (rpm) [10]: 1078 rpm
- Log2 differential normalized TPM ratio compared to glucose [11]: 2.8
- Transcripts per million (rpm) [11]: 1593.4 rpm
- Log2 differential normalized TPM ratio compared to glucose [12]: 1.3
- Transcripts per million (rpm) [12]: 82.6 rpm
- Log2 differential normalized TPM ratio compared to glucose [13]: 2.4
- Transcripts per million (rpm) [13]: 44.2 rpm
- Log2 differential normalized TPM ratio compared to glucose [14]: 2
- Transcripts per million (rpm) [14]: 167.4 rpm
- Log2 differential normalized TPM ratio compared to glucose [15]: 2.2
- Transcripts per million (rpm) [15]: 409.6 rpm
- Log2 differential normalized TPM ratio compared to glucose [16]: 2.3
- Transcripts per million (rpm) [16]: 345.9 rpm
- Log2 differential normalized TPM ratio compared to glucose [17]: 2
- Transcripts per million (rpm) [17]: 416.6 rpm
- Log2 differential normalized TPM ratio compared to glucose [18]: 1.9
- Transcripts per million (rpm) [18]: 165.8 rpm
- Log2 differential normalized TPM ratio compared to glucose [19]: 0.5
- Transcripts per million (rpm) [19]: 1.5 rpm
- Log2 differential normalized TPM ratio compared to glucose [20]: 0.3
- Transcripts per million (rpm) [20]: 109.5 rpm
- Log2 differential normalized TPM ratio compared to glucose [21]: 0.2
- Transcripts per million (rpm) [21]: 93 rpm
- Log2 differential normalized TPM ratio compared to glucose [22]: 0.5
- Transcripts per million (rpm) [22]: 20.8 rpm
- Log2 differential normalized TPM ratio compared to glucose [23]: 1
- Transcripts per million (rpm) [23]: 5.5 rpm
- Log2 differential normalized TPM ratio compared to glucose [24]: 1.1
- Transcripts per million (rpm) [24]: 75.1 rpm
- Log2 differential normalized TPM ratio compared to glucose [25]: 3.1
- Transcripts per million (rpm) [25]: 10677.4 rpm
- Log2 differential normalized TPM ratio compared to glucose [26]: 0.7
- Transcripts per million (rpm) [26]: 65.3 rpm
- Log2 differential normalized TPM ratio compared to glucose [27]: 1.8
- Transcripts per million (rpm) [27]: 8.5 rpm
- Transcripts per million (rpm) (gene LBA0802 (Hypothetical protein)): 40.6 rpm
- Log2 differential normalized TPM ratio compared to glucose (gene LBA0861 (Polyferredoxin)): 0.5
- Transcripts per million (rpm) (gene LBA0861 (Polyferredoxin)): 272.1 rpm
- Log2 differential normalized TPM ratio compared to glucose (gene LBA1023 (Oxidoreductase)): 0.3
- Transcripts per million (rpm) (gene LBA1023 (Oxidoreductase)): 213.6 rpm
- Log2 differential normalized TPM ratio compared to glucose [28]: 0
- Transcripts per million (rpm) [28]: 31.7 rpm
- Log2 differential normalized TPM ratio compared to glucose [29]: 0.4
- Transcripts per million (rpm) [29]: 43.3 rpm
- Log2 differential normalized TPM ratio compared to glucose (gene LBA1027 (Oxidoreductase)): 1.5
- Transcripts per million (rpm) (gene LBA1027 (Oxidoreductase)): 1733.7 rpm
- Log2 differential normalized TPM ratio compared to glucose [30]: 1.2
- Transcripts per million (rpm) [30]: 302.8 rpm
- Log2 differential normalized TPM ratio compared to glucose [31]: 2.1
- Transcripts per million (rpm) [31]: 294.6 rpm
- Log2 differential normalized TPM ratio compared to glucose [32]: 3.7
- Transcripts per million (rpm) [32]: 57.4 rpm
- Log2 differential normalized TPM ratio compared to glucose [33]: 1.6
- Transcripts per million (rpm) [33]: 53.4 rpm
- Log2 differential normalized TPM ratio compared to glucose (gene LBA1469 (UDP-glucose 4-epimerase)): 5
- Log2 differential normalized TPM ratio compared to glucose [34]: 0.6
- Transcripts per million (rpm) [34]: 30.6 rpm
- Log2 differential normalized TPM ratio compared to glucose [35]: 1.4
- Transcripts per million (rpm) [35]: 1127.6 rpm
- Log2 differential normalized TPM ratio compared to glucose [36]: 1.2
- Transcripts per million (rpm) [36]: 734.7 rpm
- Log2 differential normalized TPM ratio compared to glucose [37]: −0.2
- Transcripts per million (rpm) [37]: 14 rpm
- Log2 differential normalized TPM ratio compared to glucose [38]: 0.6
- Transcripts per million (rpm) [38]: 10.7 rpm
- Log2 differential normalized TPM ratio compared to glucose [39]: 0.8
- Transcripts per million (rpm) [39]: 31.5 rpm
- Log2 differential normalized TPM ratio compared to glucose [40]: 0.8
- Transcripts per million (rpm) [40]: 15.3 rpm
- Log2 differential normalized TPM ratio compared to glucose [41]: 1.9
- Transcripts per million (rpm) [41]: 5636.3 rpm
- Log2 differential normalized TPM ratio compared to glucose [42]: 2.8
- Transcripts per million (rpm) [42]: 117.6 rpm
- Log2 differential normalized TPM ratio compared to glucose (gene LBA1796 (ABC exporter)): 2.5
- Transcripts per million (rpm) (gene LBA1796 (ABC exporter)): 52.4 rpm
- Log2 differential normalized TPM ratio compared to glucose [43]: 2.4
- Transcripts per million (rpm) [43]: 43.9 rpm
- Log2 differential normalized TPM ratio compared to glucose [44]: 0.2
- Transcripts per million (rpm) [44]: 31.9 rpm
